Experimental data as given in patent US20240316012A1, “METHODS FOR TREATING LYMPHOMA” (Northwestern University, priority 2023, published 2024).

Tested on: ACLY (p-ACLY^S455)
Assay: Western blot analysis of p-ACLY^S455
Format: cell-based, mouse
Settings: overnight in vitro with anti-PD-L1; Wortmannin 20 nM, LY294002 20 μM; 2 μM, 10 μM
Procedure: FIGS. 4A-4H show ACLY is a critical effector molecule downstream of PD-1. […] ITK-SYK^+ cells were FACS-sorted from ITK-SYK^CD4-creERT2 mice on d5 after TAM and 12 h anti-PD-L1 or isotype control antibody treatment (i.p., 200 μg). P=paired two-sided Student's t-test. Data are presented as the mean±SD. […] Spleen-derived single-cell suspensions were FACS-sorted from ITK-SYK^CD4-creERT2 mice on d5 after TAM and cultured in vitro overnight with anti-PD-L1 or isotype control antibodies and the PI3K inhibitors (“iPI3K”) Wortmannin (20 nM), LY294002 (20 μM), or DMSO. […] Spleen-derived lymphocytes, FACS-sorted from ITK-SYK^CD4-creERT2 and ITK-SYK^CD4-creERT2; Pdcd1^−/− mice on d5 after TAM were incubated for three days in vitro. P=two-sided Student's t-test. Data are presented as the mean±SD. […] Protein lysates were generated after 48 h in vitro culture. RNP, ribonucleoprotein. […] P=two-sided Logrank-test. […] ITK-SYK^+ cells were FACS-sorted from ITK-SYK^CD4-creERT2 (“Pdcd1^+/+”) and ITK-SYK^CD4-creERT2; Pdcd1^−/− (“Pdcd1^−/−”) mice on d5 after TAM, fixed, and processed for anti-H3K27ac ChIP-seq analysis. ChIP-seq, chromatin immunoprecipitation sequencing; TSS, transcription start site. FIG. 4B, Representative data from three independent experiments with three biological replicates per group. FIG. 4C, Representative data from two independent experiments with two biological replicates. […]

With `O=c1cc(N2CCOCC2)oc2c(-c3ccccc3)cccc12` [LY294002, 2-(4-morpholinyl)-8-phenyl-4H-1-benzopyran-4-one] the “p-ACLY^S455 phosphorylation induced by PD-1 inactivation” value was “could be reversed”.
